# Patent publication US12702715B2, “Targeted RNA degradation allows precision repurposing of protein-targeted small molecule medicines to RNA” (University of Florida Research Foundation, Incorporated, priority 2020, dated 2026)
# Entries after “also recorded” stand apart in the source; their conditions may differ.
# How the values were obtained:
# Assay type in all cases: cell-based, human
# miR-21 = test: RT-qPCR of mature miR-21 levels in MDA-MB-231 cells
# Description: Cell Culture. Cells were cultured at 37° C. and 5% CO2. […] For compound treatment, compound stocks either in DMSO or water were diluted in growth medium and added to cells for the indicated time. […] After transfection, the medium was replaced with growth medium containing the compound of interest, prepared as described above. The RNase L-targeting siRNA or a control siRNA was transfected with Lipofectamine RNAiMAX reagent (Invitrogen) per the manufacturer's protocol.
# (§1) RNA Isolation and Quantitative Real-Time PCR (RT-qPCR). After treatment, total RNA was extracted and purified by using the Zymo Quick-RNA mini prep kit per the manufacturer's protocol. Reverse Transcription (RT) for mature miRNAs as well as pri- and pre-miR-21 was completed on 200 ng of RNA by using a miScript 11 RT kit (QIAGEN) according to manufacturer's protocol. RT of mRNAs was performed by using QScript kit (Quanta Bio). An Applied Biosystems QS5 384-well PCR system was used to complete qPCR experiments using Power Sybr Green Mater Mix (Life Technologies) as described previously^6.
# pre-miR-21 [1] = test: RT-qPCR of pre-miR-21 levels in MDA-MB-231 cells
# Description: Cell Culture. Cells were cultured at 37° C. and 5% CO2. MDA-MB-231 cells (HTB-26, ATCC) were cultured in RMPI 1640 medium with L-glutamine & 25 mM HEPES supplemented with 1× Antibiotic/Antimycotic solution (Corning) and 10% FBS. MCF-10A cells (CRL-10317, ATCC) were cultured in 1×DMEM/F12 50/50 with L-glutamine & 15 mM HEPES (Corning) supplemented with 20% FBS, 1× Antibiotic/Antimycotic solution, 20 ng/mL human epidermal growth factor (Pepro Tech, Inc.), 10 μg/mL insulin (Sigma-Aldrich), and […] hydrocortisone (Pfaltz & Bauer). For compound treatment, compound stocks either in DMSO or water were diluted in growth medium and added to cells for the indicated time. Plasmid DNA to overexpress pre-miR-21 in pcDNA 3.1 (Addgene 21114) or a plasmid DNA encoding the pre-miR-21 mutant (custom purchased from GenScript USA, Inc.) was transfected with jetPRIME per the manufacturer's protocol. After transfection, the medium was replaced with growth medium containing the compound of interest, prepared as described above. The RNase L-targeting siRNA or a control siRNA was transfected with Lipofectamine RNAiMAX reagent (Invitrogen) per the manufacturer's protocol.
# as §1
# FLT3 = FLT3 degradation Western blot in MDA-MB-231 cells; conditions: MDA-MB-231
# Description: In each case, the secondary antibody was diluted two times more than the primary antibody.
# [2] = system: RTK / phosphorylation of ERK (pERK); test: Western blot of ERK phosphorylation (functional RTK inhibition) in MDA-MB-231 cells
# Description: Western Blotting. MDA-MB-231 cells were plated in 6-well plates. […] The cells were harvested by trypsinization, and total protein was extracted with MPER (Mammalian Protein Extraction Reagent, Thermo Scientific) as previously described^6. Protein concentrations were determined by using a Pierce Micro BCA Protein Assay kit (Fisher Scientific). […] ImageJ software was used for quantification of the protein bands. […] In each case, the secondary antibody was diluted two times more than the primary antibody.
# pre-miR-21 [3] = test: Cellular Chem-CLIP and C-Chem-CLIP to study occupancy of pre-miR-21; conditions: increasing concentrations, 4 constant
# Description: Cellular Chem-CLIP and C-Chem-CLIP to Study Occupancy of pre-miR-2L MDA-MB-231 cells in 100 mm dishes (~90% confluency) were treated with 4 or 5 for 6 h at 37° C. Then the cells were washed with 1×DPBS and cross-linked under 365 nm light for 10 min in ice cold 1×DPBS. The cells were harvested by scraping and pelleted by centrifugation. Total RNA was extracted by using the miRNeasy mini kit (Qiagen) per the manufacturer's protocol. Approximately 50 μg of total RNA was clicked to disulfide biotin azide as described in the “In Vitro Chem-CLIP and Competitive Chem-CLIP (C-Chem-CLIP)” section. Streptavidin beads (10 μL) were added, and the samples were incubated, with shaking, for 2 h at 37° C. The beads were then washed with 1× Wash Buffer (10 mM Tris-HCl, pH 7.0, 4 M NaCl, 1 mM EDTA) three times and then once with nanopure water. Bound RNAs were eluted from the beads by incubating with 200 μL of 1:1 TCEP (200 mM) pre-reduced with 600 mM of K2CO3 for 30 min at 37° C. The reaction was quenched by treatment with an equal volume of 400 mM of iodoacetamide for 30 min at room temperature. The supernatant was collected, and the beads were washed once with nanopure water: the water was added to the eluant. The combined eluant was cleaned up using RNAClean XP beads according to the manufacturer's protocol. The obtained RNA was then subjected to RT-qPCR. Enrichment of pre-miR-21 was calculated as previously described^6. Cellular C-Chem-CLIP was completed by pre-treating with 1 (1 or 5 μM) or 3 (1 or 5 μM) for 6 h, followed by dosing with 4 (5 μM) for 6 h. Sample preparation and data analysis were completed as described above for cellular Chem-CLIP studies.
# PTEN = PTEN luciferase assay; conditions: MDA-MB-231
# Description: PTEN Luciferase Assay. To study de-repression of PTEN, a luciferase-based cellular assay was performed as previously described^6. Briefly, MDA-MB-231 cells (~60% confluency) in 48-well plates were co-transfected with plasmids encoding Renilla luciferase (for normalization) and firefly luciferase fused to the 3′ UTR of PTEN by using Lipofectamine 2000 according to the manufacturer's protocol. After 5 h, the cells were treated with the compounds diluted in growth medium. Luciferase assay were then completed as previously described^4, 9.
structure (smiles),measurement,setting,value
"Cc1ncsc1-c1ccc(CNC(=O)[C@@H]2C[C@@H](O)CN2C(=O)[C@@H](NC(=O)NCCOCCOCCOCCOCCC(=O)NCCN2CCN(c3ccc4[nH]c(-c5c(N)c6c(F)cccc6[nH]c5=O)nc4c3)CC2)C(C)(C)C)cc1 [Compound 3, Protac-Dovitinib]",fold increase in potency / miR-21 inhibitory activity compared with 1,miR-21; MDA-MB-231,similar
same,mature miR-21 levels,"miR-21; MDA-MB-231, RT-qPCR",reduced
same,pre-miR-21 levels,"pre-miR-21 [1]; MDA-MB-231, RT-qPCR",increased; also recorded: boosted
same,competition of cleavage of pre-miR-21 by RIBOTAC 2,"pre-miR-21 [1]; constant concentration of 2 (1 μM), increasing competitor",abated the cleavage
same,FLT3 levels / degradation,FLT3,low nanomolar activity; also recorded: induced degradation of FLT3 in a dose-dependent manner
same,fold increase of RTK inhibition relative to 1,[2],5 fold
same,IC50,"[2]; Homo sapiens, MDA-MB-231",20 nM
same,inhibition of ERK phosphorylation compared to 1,[2]; Western blot,more potent than 1
same,competition of pull-down of pre-miR-21 with 4,pre-miR-21 [3],similarly diminished
same,PTEN expression (luciferase-based assay),PTEN,derepressed
